In ChEMBL document CHEMBL3244307, “Replacement of the disulfide bond in oxytocin by an amide group. Synthesis and some biological properties of (cyclo-(1-L-aspartic acid,6-L-alpha,beta-diaminopropionic acid))oxytocin” (1978):
Calls of active or inactive are those of the source. The rule behind the calls is not given here. Where a SMILES comes first, the peptide text is derived from it. Bridges are numbered along the chain shown (N, C = ends). [ ]: non-standard residue; d: D form. ξ: configuration not given here. ξDap = NCC(N)C(=O)O; βAla = NCCC(=O)O

Experiments:
[1] = tested on: Gallus gallus; test: Effect on vasodepressor activity in conscious chicken; type: functional
[2] = organism: Rattus norvegicus; test: Uterotonic activity in rat; type: functional
[3] = organism: Rattus norvegicus; test: Effect on pressor response in rat; type: functional, organism-based
[4] = organism: Rattus norvegicus; test: Antidiuretic activity in rat; type: functional, Urine

Row | SMILES | Activity [1] [U/mg] | Activity [2] [U/mg] | Activity [3] | Activity [4] [U/mg]
1 | CC[C@H](C)[C@@H]1NC(=O)[C@H](Cc2ccc(O)cc2)NC(=O)[C@@H](N)CC(=O)NCC(C(=O)N2CCC[C@H]2C(=O)N[C@@H](CC(C)C)C(=O)NCC(N)=O)NC(=O)[C@H](CC(N)=O)NC(=O)[C@H](CCC(N)=O)NC1=O (stereo partly drawn) (H-DYIQN[ξDap]PLG-NH2; lactam 1-6) | 6.6 | 16 | Active | 5.6
2 | CC[C@H](C)[C@@H]1NC(=O)[C@H](Cc2ccc(O)cc2)NC(=O)CCNC(=O)C[C@@H](C(=O)N2CCC[C@H]2C(=O)N[C@@H](CC(C)C)C(=O)NCC(N)=O)NC(=O)[C@H](CC(N)=O)NC(=O)[C@H](CCC(N)=O)NC1=O ([βAla]YIQNDPLG-NH2; lactam N-6) | – | 1.13 | – | –
3 | CC[C@H](C)[C@@H]1NC(=O)[C@H](Cc2ccc(O)cc2)NC(=O)[C@@H](N)CSSC[C@@H](C(=O)N2CCC[C@H]2C(=O)N[C@@H](CC(C)C)C(=O)NCC(N)=O)NC(=O)[C@H](CC(N)=O)NC(=O)[C@H](CCC(N)=O)NC1=O [OXYTOCIN] | 500 | 540 | – | 3
